Laboratory results published in patent US8685724B2, “In vitro techniques for use with stem cells” (Kwalata Trading Limited, priority 2004, dated 2014).

Legend:
first-pass cells [1] = test: Enrichment of EPCs from first-pass cells on plasma-coated flasks in the presence of 17-β-estradiol, flow-cytometry staining; type: cell-based, human; conditions: 0.002-2 microgram/ml 17-β-Estradiol, 5-20% autologous serum, VEGF, Heparin, 3 experiments
Description: Coating T-75 Flasks with Autologous Plasma Example 3 for High % Serum Medium Culturing Collection of Cells for FACS Staining FACS Staining In a set of separate experiments, enrichment of EPCs from first-pass cells was evaluated following in-vitro growth on autologous plasma-coated T-75 Flasks in the presence of medium containing autologous serum, VEGF, 17-beta-estradiol and Heparin. These were experiments conducted with human blood, using the protocol described hereinabove. […] FACS staining results of cells cultured in media containing 5-20% autologous serum (typically 10%), 1, 2, 10, or 20 ng/ml VEGF, 0.002-2 microgram/ml 17-β-Estradiol and 5-25 IU/ml Heparin are summarized. The following surface markers were analyzed: CD45 (a pan-lymphocyte marker), the stem/progenitor cell markers CD34 and CD117, and the EPC/endothelial cell markers CD133, and KDR (VEGF-R).

first-pass cells [2] = test: Enrichment of EPCs from first-pass cells on plasma-coated flasks in the presence of progesterone, flow-cytometry staining; type: cell-based, human; conditions: 0.02-2 microgram/ml progesterone, 5-20% autologous serum, VEGF, Heparin, 3 experiments
Description: Coating T-75 Flasks with Autologous Plasma Example 2 for High % Serum Medium Culturing Collection of Cells for FACS Staining FACS Staining In a set of separate experiments, enrichment of EPCs from first-pass cells was evaluated following in-vitro growth on autologous plasma-coated T-75 Flasks in the presence of medium containing autologous serum, VEGF, progesterone and Heparin. These experiments were conducted with human blood, using the protocol described hereinabove. […] FACS staining results of cells cultured in media containing 5-20% autologous serum (typically 10%), 1, 2, 10, or 20 ng/ml VEGF, 0.02-2 microgram/ml progesterone and 5-25 IU/ml Heparin are summarized. The following surface markers were analyzed: CD45 (a pan-lymphocyte marker), the stem/progenitor cell markers CD34 and CD117, and the EPC/endothelial cell markers CD133 and KDR (VEGF-R).

SMILES | CD34 average percentage staining (first-pass cells [1]) [%] | CD45 average percentage staining (first-pass cells [1]) [%] | CD117 average percentage staining (first-pass cells [1]) [%] | CD133 average percentage staining (first-pass cells [1]) [%] | KDR average percentage staining (first-pass cells [1]) [%] | CD34 AVG percentage staining (first-pass cells [2]) [%] | CD45 AVG percentage staining (first-pass cells [2]) [%] | CD117 AVG percentage staining (first-pass cells [2]) [%] | CD133 AVG percentage staining (first-pass cells [2]) [%] | KDR AVG percentage staining (first-pass cells [2]) [%]
C[C@]12CC[C@@H]3c4ccc(O)cc4CC[C@H]3[C@@H]1CC[C@@H]2O [17-β-estradiol] | 4.12 | 96.14 | 1.41 | 1.77 | 0.28 | – | – | – | – | –
CC(=O)[C@H]1CC[C@H]2[C@@H]3CCC4=CC(=O)CC[C@]4(C)[C@H]3CC[C@]12C [progesterone] | – | – | – | – | – | 21.22 | 94.82 | 5.54 | 5.72 | 1.05
